From US9738634B2, “Heterocyclic amide compound and herbicide” (SYNGENTA PARTICIPATIONS AG, priority 2013, dated 2017)

Columns and labels:
Format in all cases: in vivo
[1] = tested on: crabgrass; test: Test Example 3: weedkilling efficacy through soil treatment; D: crabgrass; settings: treatment dosage 315 g/ha
Summary of the method: (§1)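 Crop and weed responses were judged three weeks after a uniform surface spray of the water-diluted emulsion at the given g/ha rate. Seeds sat beneath about 1.5 cm of sterilized diluvial soil, and boxes stood in a greenhouse at 25 to 30° C.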

[2] = tested on: Italian ryegrass; test: Test Example 4: weedkilling efficacy by foliar treatment; I: Italian ryegrass; settings: treatment dosage 315 g/ha
Description: (§2) Testing of Weedkilling Efficacy by Foliar Treatment
(§3) Sterilized diluvial soil was introduced into 21 cm long, 13 cm wide, 7 cm deep plastic boxes, and seeds of crabgrass, green foxtail, barnyard grass, wild oat, black-grass, Italian ryegrass, common wind-grass, Indian mallow, redroot pigweed, fig-leafed goosefoot, chickweed, catchweed, birds-eye speedwell, corn, soybean, rice, wheat, beet and rapeseed were each spot-sown, and covered with about 1.5 cm of soil, then the plants were grown in a greenhouse at 25 to 30° C.
(§4) After they had grown for 14 days, emulsions of compounds of the present invention prepared according to compounding example 2 were diluted with water to give the specified dosages, and applied uniformly onto the stem and leaf parts with a small sprayer. 3 weeks after the pesticide treatment the effect on each type of plant was investigated on the basis of the assessment criteria of test example 1.
(§5) A: barnyard grass, B: bulrush, C: oval-leafed pondweed, D: crabgrass, E: green foxtail, F: barnyard grass, G: wild oat, H: black-grass, I: Italian ryegrass, J: common wind-grass, K: Indian mallow, L: redroot pigweed, M: fig-leafed goosefoot, N: chickweed, O: catchweed, p: birds-eye speedwell, a: transplanted rice, b: directly sown rice, c: corn, d: soybean, e: wheat, f: beet, g: rapeseed
(§6) Further, pesticide dosage (g/ha) indicates the concentration regulated such that treatment was with only the stated number of grams (g), when calculated per hectare (ha).

[3] = tested on: corn; test: Test Example 3: soil treatment, effect on crop; c: corn; settings: treatment dosage 315 g/ha
Summary of the method: as §1

[4] = tested on: oval-leafed pondweed; test: Test Example 2: weedkilling efficacy, growth period weed treatment in the submerged state; C: oval-leafed pondweed; settings: treatment dosage 252 g/ha
Summary of the method: (§7)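 First, alluvial soil in pots is flooded to 4 cm and mixed seed is sown. Next, plants grow in a greenhouse at 25 to 30° C until the 1-2 leaf stage. Then diluted emulsion is applied onto the water surface at the given g/ha rate, and injury is assessed after 3 weeks.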

[5] = tested on: soybean; test: Test Example 3: soil treatment, effect on crop; d: soybean; settings: treatment dosage 315 g/ha
Summary of the method: as §1

[6] = tested on: fig-leafed goosefoot; test: Test Example 3: weedkilling efficacy through soil treatment; M: fig-leafed goosefoot; settings: treatment dosage 315 g/ha
Summary of the method: as §1

[7] = tested on: chickweed; test: Test Example 4: weedkilling efficacy by foliar treatment; N: chickweed; settings: treatment dosage 315 g/ha
Description: as §2, §3, §4, §5, §6

[8] = tested on: redroot pigweed; test: Test Example 3: weedkilling efficacy through soil treatment; L: redroot pigweed; settings: treatment dosage 315 g/ha
Summary of the method: as §1

[9] = tested on: catchweed; test: Test Example 4: weedkilling efficacy by foliar treatment; O: catchweed; settings: treatment dosage 315 g/ha
Description: as §2, §3, §4, §5, §6

[10] = tested on: black-grass; test: Test Example 4: weedkilling efficacy by foliar treatment; H: black-grass; settings: treatment dosage 315 g/ha
Description: as §2, §3, §4, §5, §6

[11] = tested on: birds-eye speedwell; test: Test Example 4: weedkilling efficacy by foliar treatment; p: birds-eye speedwell; settings: treatment dosage 315 g/ha
Description: as §2, §3, §4, §5, §6

[12] = tested on: barnyard grass; test: Test Example 1: weedkilling efficacy, preemergent weed treatment in the submerged state; A: barnyard grass; settings: treatment dosage 252 g/ha
Summary of the method: (§8)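 Emulsion diluted with water to the specified per-hectare dosage is applied onto flood water (4 cm) over alluvial soil on the sowing day, with barnyard grass, bulrush and pondweed seeded and rice (2.5-leaf) transplanted; plants grow at 25–30 °C and are rated at 3 weeks.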

[13] = tested on: green foxtail; test: Test Example 4: weedkilling efficacy by foliar treatment; E: green foxtail; settings: treatment dosage 315 g/ha
Description: as §2, §3, §4, §5, §6

[14] = tested on: Indian mallow; test: Test Example 4: weedkilling efficacy by foliar treatment; K: Indian mallow; settings: treatment dosage 315 g/ha
Description: as §2, §3, §4, §5, §6

[15] = tested on: black-grass; test: Test Example 3: weedkilling efficacy through soil treatment; H: black-grass; settings: treatment dosage 315 g/ha
Summary of the method: as §1

[16] = tested on: crabgrass; test: Test Example 4: weedkilling efficacy by foliar treatment; D: crabgrass; settings: treatment dosage 315 g/ha
Description: as §2, §3, §4, §5, §6

[17] = tested on: Indian mallow; test: Test Example 3: weedkilling efficacy through soil treatment; K: Indian mallow; settings: treatment dosage 315 g/ha
Summary of the method: as §1

[18] = tested on: bulrush; test: Test Example 1: weedkilling efficacy, preemergent weed treatment in the submerged state; B: bulrush; settings: treatment dosage 252 g/ha
Summary of the method: as §8

[19] = tested on: fig-leafed goosefoot; test: Test Example 4: weedkilling efficacy by foliar treatment; M: fig-leafed goosefoot; settings: treatment dosage 315 g/ha
Description: as §2, §3, §4, §5, §6

[20] = tested on: transplanted rice; test: Test Example 1: preemergent weed treatment in the submerged state, effect on crop; a: transplanted rice; settings: treatment dosage 252 g/ha
Summary of the method: as §8

[21] = tested on: birds-eye speedwell; test: Test Example 3: weedkilling efficacy through soil treatment; p: birds-eye speedwell; settings: treatment dosage 315 g/ha
Summary of the method: as §1

[22] = tested on: redroot pigweed; test: Test Example 4: weedkilling efficacy by foliar treatment; L: redroot pigweed; settings: treatment dosage 315 g/ha
Description: as §2, §3, §4, §5, §6

[23] = tested on: directly sown rice; test: Test Example 3: soil treatment, effect on crop; b: directly sown rice; settings: treatment dosage 315 g/ha
Summary of the method: as §1

[24] = tested on: bulrush; test: Test Example 2: weedkilling efficacy, growth period weed treatment in the submerged state; B: bulrush; settings: treatment dosage 252 g/ha
Summary of the method: as §7

[25] = tested on: green foxtail; test: Test Example 3: weedkilling efficacy through soil treatment; E: green foxtail; settings: treatment dosage 315 g/ha
Summary of the method: as §1

[26] = tested on: Italian ryegrass; test: Test Example 3: weedkilling efficacy through soil treatment; I: Italian ryegrass; settings: treatment dosage 315 g/ha
Summary of the method: as §1

[27] = tested on: beet; test: Test Example 4: foliar treatment, effect on crop; f: beet; settings: treatment dosage 315 g/ha
Description: as §2, §3, §4, §5, §6

[28] = tested on: wheat; test: Test Example 4: foliar treatment, effect on crop; e: wheat; settings: treatment dosage 315 g/ha
Description: as §2, §3, §4, §5, §6

[29] = tested on: beet; test: Test Example 3: soil treatment, effect on crop; f: beet; settings: treatment dosage 315 g/ha
Summary of the method: as §1

[30] = tested on: barnyard grass; test: Test Example 2: weedkilling efficacy, growth period weed treatment in the submerged state; A: barnyard grass; settings: treatment dosage 252 g/ha
Summary of the method: as §7

[31] = tested on: chickweed; test: Test Example 3: weedkilling efficacy through soil treatment; N: chickweed; settings: treatment dosage 315 g/ha
Summary of the method: as §1

[32] = tested on: directly sown rice; test: Test Example 4: foliar treatment, effect on crop; b: directly sown rice; settings: treatment dosage 315 g/ha
Description: as §2, §3, §4, §5, §6

[33] = tested on: corn; test: Test Example 4: foliar treatment, effect on crop; c: corn; settings: treatment dosage 315 g/ha
Description: as §2, §3, §4, §5, §6

[34] = tested on: oval-leafed pondweed; test: Test Example 1: weedkilling efficacy, preemergent weed treatment in the submerged state; C: oval-leafed pondweed; settings: treatment dosage 252 g/ha
Summary of the method: as §8

[35] = tested on: soybean; test: Test Example 4: foliar treatment, effect on crop; d: soybean; settings: treatment dosage 315 g/ha
Description: as §2, §3, §4, §5, §6

CC1=C(c2cccs2)C(=O)N(C(C)(C)C(=O)Nc2cccc(Cl)n2)CO1 [B-2-01]
D (crabgrass) weedkilling efficacy grade [1]: 5 (weed kill ratio 90% or more, (practically complete withering)) | I (Italian ryegrass) weedkilling efficacy grade [2]: 5 (weed kill ratio 90% or more, (practically complete withering)) | c (corn) effect on crop grade [3]: 0 (weed kill ratio 5% or less (practically no effect)) | C (oval-leafed pondweed) weedkilling efficacy grade [4]: 5 (weed kill ratio 90% or more, (practically complete withering)) | d (soybean) effect on crop grade [5]: 0 (weed kill ratio 5% or less (practically no effect)) | M (fig-leafed goosefoot) weedkilling efficacy grade [6]: 4 (weed kill ratio 70% or more, less than 90%) | N (chickweed) weedkilling efficacy grade [7]: 4 (weed kill ratio 70% or more, less than 90%) | L (redroot pigweed) weedkilling efficacy grade [8]: 4 (weed kill ratio 70% or more, less than 90%) | O (catchweed) weedkilling efficacy grade [9]: 4 (weed kill ratio 70% or more, less than 90%) | H (black-grass) weedkilling efficacy grade [10]: 5 (weed kill ratio 90% or more, (practically complete withering)) | P (birds-eye speedwell) weedkilling efficacy grade [11]: 0 (weed kill ratio 5% or less (practically no effect)) | A (barnyard grass) weedkilling efficacy grade [12]: 5 (weed kill ratio 90% or more, (practically complete withering)) | E (green foxtail) weedkilling efficacy grade [13]: 5 (weed kill ratio 90% or more, (practically complete withering)) | K (Indian mallow) weedkilling efficacy grade [14]: 3 (weed kill ratio 40% or more, less than 70%) | H (black-grass) weedkilling efficacy grade [15]: 5 (weed kill ratio 90% or more, (practically complete withering)) | D (crabgrass) weedkilling efficacy grade [16]: 5 (weed kill ratio 90% or more, (practically complete withering)) | K (Indian mallow) weedkilling efficacy grade [17]: 3 (weed kill ratio 40% or more, less than 70%) | B (bulrush) weedkilling efficacy grade [18]: 5 (weed kill ratio 90% or more, (practically complete withering)) | M (fig-leafed goosefoot) weedkilling efficacy grade [19]: 4 (weed kill ratio 70% or more, less than 90%) | a (transplanted rice) effect on crop grade [20]: 2 (weed kill ratio 20% or more, less than 40%) | P (birds-eye speedwell) weedkilling efficacy grade [21]: 5 (weed kill ratio 90% or more, (practically complete withering)) | L (redroot pigweed) weedkilling efficacy grade [22]: 5 (weed kill ratio 90% or more, (practically complete withering)) | b (directly sown rice) effect on crop grade [23]: 5 (weed kill ratio 90% or more, (practically complete withering)) | B (bulrush) weedkilling efficacy grade [24]: 5 (weed kill ratio 90% or more, (practically complete withering)) | E (green foxtail) weedkilling efficacy grade [25]: 5 (weed kill ratio 90% or more, (practically complete withering)) | I (Italian ryegrass) weedkilling efficacy grade [26]: 5 (weed kill ratio 90% or more, (practically complete withering)) | f (beet) effect on crop grade [27]: 4 (weed kill ratio 70% or more, less than 90%) | e (wheat) effect on crop grade [28]: 1 (weed kill ratio 5% or more, less than 20%) | f (beet) effect on crop grade [29]: 4 (weed kill ratio 70% or more, less than 90%) | A (barnyard grass) weedkilling efficacy grade [30]: 5 (weed kill ratio 90% or more, (practically complete withering)) | N (chickweed) weedkilling efficacy grade [31]: 3 (weed kill ratio 40% or more, less than 70%) | b (directly sown rice) effect on crop grade [32]: 5 (weed kill ratio 90% or more, (practically complete withering)) | c (corn) effect on crop grade [33]: 0 (weed kill ratio 5% or less (practically no effect)) | C (oval-leafed pondweed) weedkilling efficacy grade [34]: 5 (weed kill ratio 90% or more, (practically complete withering)) | d (soybean) effect on crop grade [35]: 5 (weed kill ratio 90% or more, (practically complete withering))
